This is an account of results in patent US12325696B2, “Indazole derivative, preparation method therefor, and pharmaceutical application thereof” (JIANGSU HENGRUI MEDICINE CO., LTD., priority 2019, dated 2025).

Read-outs that look alike come from different tables or passages of the source.

What is called AUC is concentration integrated over time. The term MRT denotes a mean duration of stay, worked out from the concentration-time curve. Usually IC50 stands for the concentration needed to halve the response being measured. A word on the bioavailability: it is dose-corrected exposure relative to a reference, in per cent.

A short description of data set [1]: Pharmacokinetics in BALB/C nude mice after intragastric administration. It is filed as in vivo. The conditions noted are these: female, mouse, plasma, po; for Vd/F: read-out: Apparent volume of distribution Vz/F; for AUC: read-out: Area under curve AUC; for CL/F: read-out: Clearance rate CL/F; for half-life: read-out: Half-life t1/2 (converted); for Cmax: read-out: Plasma concentration Cmax; for MRT: read-out: Residence time MRT. The method, then: BALB/C nude mice were used as test animals. The drug concentration in plasma at different time points was determined by LC/MS/MS method after intragastric administration of the compounds of the present disclosure to BALB/C nude mice. The pharmacokinetic behavior and characteristics of the compounds of the present disclosure was studied and evaluated in BALB/C nude mice.
Sixty-three BALB/C nude mice (female, equally divided into seven groups, nine mice per group) were purchased from Jiesijie Laboratory Animal Co., LTD. (Certificate No.: SCXK (Shanghai)2013-0006).
For the compound of Example 14, an appropriate amount of the compound was weighed, followed by the addition of 5% of DMSO, 5% of tween 80 and 90% of normal saline by volume to obtain a colorless, clear and transparent solution (0.1 mg/mL).
For the compounds of Examples 1, 15 and 39 to 42, an appropriate amount of the compound was weighed, followed by the addition of 9% of PEG400, 0.5% of tween 80 and 90.5% of 0.5% CMC-Na by volume to obtain a colorless, clear and transparent solution (1.5 mg/mL).
After an overnight fast, the test compounds were intragastrically administered at an administration volume of 0.2 ml/10 g respectively. The administration dose of the compound of Example 14 was 2 mg/kg, and the administration dose of the compounds of Examples 1, 15 and 39 to 42 was 30 mg/kg.
For the compounds of Examples 1 and 39, 0.1 ml of blood was taken at 0.25, 0.5, 1.0, 2.0, 4.0, 6.0, 8.0, 11.0 and 24.0 hours after the administration (from three animals per time point). The samples were stored in blood collection tubes treated with heparin (Sinopharm Chemical Reagent Co., Ltd.), and centrifuged for 10 minutes at 3500 rpm to separate the blood plasma. The blood plasma was stored at −20° C. The content of the test compound in the plasma of nude mouse after intragastrical administration of the test compound was determined. 25 μL of nude mouse plasma at each time point after the administration was taken, followed by the addition of 30 μL of the internal standard camptothecin solution (National Institutes for Food and Drug Control) (100 ng/mL) and 225 μL of acetonitrile. The resulting solution was vortex-mixed for 5 minutes, and centrifuged for 10 minutes (3700 to 4000 rpm). 0.1 to 0.5 μL of the supernatant was taken from the plasma samples for LC/MS/MS analysis.
For the compounds of Examples 14 and 15, 0.1 ml of blood was taken at 0.5, 1.0, 2.0, 4.0, 6.0, 8.0, 11.0 and 24.0 hours after the administration (from three animals per time point). The samples were stored in heparinized tubes, and centrifuged for 10 minutes at 3500 rpm to separate the blood plasma. The blood plasma was stored at −20° C. The content of the test compound in the plasma of nude mouse after intragastrical administration of the test compound was determined. 25 μL of nude mouse plasma at each time point after the administration was taken, followed by the addition of 30 μL of the internal standard camptothecin solution (100 ng/mL) and 200 μL of acetonitrile. The resulting solution was vortex-mixed for 5 minutes, and centrifuged for 10 minutes (3700 rpm). 0.25 to 1 μL of the supernatant was taken from the plasma samples for LC/MS/MS analysis.
For the compounds of Examples 40 to 42, 0.1 ml of blood was taken at 0.25, 0.5, 1.0, 2.0, 4.0, 6.0, 8.0, 11.0 and 24.0 hours after the administration (from three animals per time point). The samples were stored in tubes anticoagulated with EDTA-K2 (Shanghai Titan Scientific Co., Ltd.), and centrifuged for 1 minute at 10000 rpm and 4° C. The blood plasma was separated within one hour, and stored at −20° C. The process from blood collection to centrifugation was operated under an ice bath condition. The content of the test compound in the plasma of nude mouse after intragastrical administration of the test compound was determined. […]

The next data set has as its system MCF7 ERαY537S. Nature of the data set: Inhibition of proliferation of MCF7 cell expressing ERα Y537S mutant. It is filed as cell-based. Conditions: Homo sapiens, 144 hours; for Emax: read-out: Maximum inhibition. A digest of the protocol:
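MCF7 cells stably expressing lentiviral ERα Y537S or D538G mutants, seeded 3,000 cells/well, then exposed in 2% FBS MEM to nine 4-fold dilutions from 100 nM for 144 h at 37° C. Viability read by CellTiter-Glo luminescence; IC50 fitted from concentration-response.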

In the case of `O=C(/C=C/CNC1(COc2ccc(/C(=C(/CC(F)(F)F)c3ccccc3)c3ccc4[nH]nc(F)c4c3)cn2)CC1)N1CCOCC1` [Example 1, (E)-1-Morpholino-4-((1-(((5-((Z)-4,4,4-trifluoro-1-(3-fluoro-1H-indazol-5-yl)-2-phenylbut-1-en-1-yl)pyridin-2-yl)oxy)methyl)cyclopropyl)amino)but-2-en-1-one], in data set [1] (30 mg/kg), the Vd/F came to 8.76 L/kg, the AUC worked out at 9.85 µg·h/mL, the CL/F was found to be 3.05 L/h/kg and the half-life is 1.99 h. Further, in data set [1] (30 mg/kg), the Cmax turned out to be 4.28 µg/mL and the MRT worked out at 1.6 h. Moreover, in the data set with MCF7 ERαY537S, the IC50 was 3 nM and the Emax is 100%.
Consider `CN(C)C(=O)/C=C/CN1CCC[C@@H](Oc2ccc(/C(=C(/CC(F)(F)F)c3ccccc3)c3ccc4[nH]nc(F)c4c3)cn2)C1` [Example 14, (E)-N,N-Dimethyl-4-((R)-3-((5-((Z)-4,4,4-trifluoro-1-(3-fluoro-1H-indazol-5-yl)-2-phenylbut-1-en-1-yl)pyridin-2-yl)oxy)piperidin-1-yl)but-2-enamide], for which, in data set [1] (2 mg/kg), the Vd/F was 14.2 L/kg, the exposure (AUC) came to 0.205 µg·h/mL, the CL/F is 9.78 L/h/kg and the half-life was 1.01 h. Also, in data set [1] (2 mg/kg), the Cmax amounted to 0.087 µg/mL and the MRT was found to be 1.9 h. For the same compound, the bioavailability in data set [1] (2 mg/kg, read-out: Bioavailability F) was 24.8%. For the same compound, in the data set on MCF7 ERαY537S, the IC50 stood at 6 nM and the Emax was determined as 97%.
As to `O=C(/C=C/CN1CCC[C@@H](Oc2ccc(/C(=C(/CC(F)(F)F)c3ccccc3)c3ccc4[nH]nc(F)c4c3)cn2)C1)N1CCCC1` [Example 15, (E)-1-(Pyrrolidin-1-yl)-4-((R)-3-((5-((Z)-4,4,4-trifluoro-1-(3-fluoro-1H-indazol-5-yl)-2-phenylbut-1-en-1-yl)pyridin-2-yl)oxy)piperidin-1-yl)but-2-en-1-one], in data set [1] (30 mg/kg), the Vd/F is 5.87 L/kg, the AUC was found to be 6.56 µg·h/mL, the CL/F amounted to 4.56 L/h/kg and the half-life is 0.89 h. In addition, in data set [1] (30 mg/kg), the Cmax turned out to be 4.57 µg/mL and the MRT worked out at 1.41 h. Further, in the data set with MCF7 ERαY537S, 2 nM corresponded to half-maximal inhibition (IC50) and the Emax was determined as 102%.
In the case of `CN(C)C(=O)/C=C/CNC1(COc2ccc(/C(=C(/CC(F)(F)F)c3ccccc3)c3ccc4[nH]nc(F)c4c3)cn2)CC1` [Example 39, (E)-N,N-Dimethyl-4-((1-(((5-((Z)-4,4,4-trifluoro-1-(3-fluoro-1H-indazol-5-yl)-2-phenylbut-1-en-1-yl)pyridin-2-yl)oxy)methyl)cyclopropyl)amino)but-2-enamide], in data set [1] (30 mg/kg), the Vd/F is 2.47 L/kg, the AUC came out at 16.5 µg·h/mL, the CL/F is 1.82 L/h/kg and the half-life was 0.94 h. In data set [1] (30 mg/kg), the Cmax was 6.6 µg/mL and the MRT worked out at 1.57 h. Besides, in the data set with MCF7 ERαY537S, the IC50 worked out at 1 nM and the Emax worked out at 112%.
Regarding `O=C(/C=C/CNC1(COc2ccc(/C(=C(/CC(F)(F)F)c3ccccc3)c3ccc4[nH]nc(F)c4c3)cn2)CC1)N1CC(O)C1` [Example 40, (E)-1-(3-Hydroxyazetidin-1-yl)-4-((1-(((5-((Z)-4,4,4-trifluoro-1-(3-fluoro-1H-indazol-5-yl)-2-phenylbut-1-en-1-yl)pyridin-2-yl)oxy)methyl)cyclopropyl)amino)but-2-en-1-one], in data set [1] (30 mg/kg), the Vd/F was 4.59 L/kg, the AUC was found to be 11.9 µg·h/mL, the CL/F worked out at 2.53 L/h/kg and the half-life is 1.26 h. For the same compound, in data set [1] (30 mg/kg), the Cmax came to 3.56 µg/mL and the MRT amounted to 2.3 h. Moreover, in the data set with MCF7 ERαY537S, inhibition was half-maximal at 0.5 nM (IC50) and the Emax amounted to 112%.
Consider `O=C(/C=C/CNC1(COc2ccc(/C(=C(/CC(F)(F)F)c3ccccc3)c3ccc4[nH]nc(F)c4c3)cn2)CC1)N1CC[C@H](O)C1` [Example 41, (E)-1-((S)-3-Hydroxypyrrolidin-1-yl)-4-((1-(((5-((Z)-4,4,4-trifluoro-1-(3-fluoro-1H-indazol-5-yl)-2-phenylbut-1-en-1-yl)pyridin-2-yl)oxy)methyl)cyclopropyl)amino)but-2-en-1-one], for which, in data set [1] (30 mg/kg), the Vd/F turned out to be 14.4 L/kg, the AUC is 5.02 µg·h/mL, the CL/F worked out at 5.98 L/h/kg and the half-life is 1.67 h. For the same compound, in data set [1] (30 mg/kg), the Cmax stood at 2.89 µg/mL and the MRT was 2.26 h. For the same compound, in the data set on MCF7 ERαY537S, half-maximal inhibition (IC50) was put at 0.6 nM and the Emax turned out to be 111%.
In the case of `O=C(/C=C/CNC1(COc2ccc(/C(=C(/CC(F)(F)F)c3ccccc3)c3ccc4[nH]nc(F)c4c3)cn2)CC1)N1CCO[C@@H](CO)C1` [Example 42, (E)-1-((R)-2-(Hydroxymethyl)morpholino)-4-((1-(((5-((Z)-4,4,4-trifluoro-1-(3-fluoro-1H-indazol-5-yl)-2-phenylbut-1-en-1-yl)pyridin-2-yl)oxy)methyl)cyclopropyl)amino)but-2-en-1-one], in data set [1] (30 mg/kg), the Vd/F is 11.5 L/kg, the AUC stood at 4.51 µg·h/mL, the CL/F worked out at 6.66 L/h/kg and the half-life was 1.2 h. In data set [1] (30 mg/kg), the Cmax was found to be 2.57 µg/mL and the MRT was 1.56 h. In the data set on MCF7 ERαY537S, 0.2 nM corresponded to half-maximal inhibition (IC50) and the Emax was 107%.
